# According to the supplement of paper PMC11451515:
# Test system: NOMO1
# Test: cell viability relative to DMSO control; higher = less cytotoxic
# Details: 48 h
# Method in brief: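 NOMO1 or SEM (500 cells/well) or P12-Ichikawa (1000 cells/well) leukemia cells were adapted for at least four passages in each medium. They were seeded in 1536-well plates (5 μl) and pin-dosed with library compounds in DMSO over an 11-point threefold series, 47 μM to 0.79 nM. CellTiter-Glo One luminescence was read after 48 h at 37°C. Viability is the per-plate percentage relative to DMSO wells, with cell-free wells as background.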
# [1] = HPLM + 10% dialyzed FBS, 0.000781 µM
# [2] = HPLM + 10% dialyzed FBS, 0.00234 µM
# [3] = HPLM + 10% dialyzed FBS, 0.00702 µM
# [4] = HPLM + 10% dialyzed FBS, 0.0211 µM
# [5] = HPLM + 10% dialyzed FBS, 0.0632 µM
# [6] = HPLM + 10% dialyzed FBS, 0.19 µM
# [7] = HPLM + 10% dialyzed FBS, 0.569 µM
# [8] = HPLM + 10% dialyzed FBS, 1.71 µM
# [9] = HPLM + 10% dialyzed FBS, 5.12 µM
# [10] = HPLM + 10% dialyzed FBS, 15.4 µM
# [11] = HPLM + 10% dialyzed FBS, 46.1 µM
# [12] = RPMI 5 mM glucose + 10% FBS, 0.000781 µM
# [13] = RPMI 5 mM glucose + 10% FBS, 0.00234 µM
# [14] = RPMI 5 mM glucose + 10% FBS, 0.00702 µM
# [15] = RPMI 5 mM glucose + 10% FBS, 0.0211 µM
# [16] = RPMI 5 mM glucose + 10% FBS, 0.0632 µM
# [17] = RPMI 5 mM glucose + 10% FBS, 0.19 µM
# [18] = RPMI 5 mM glucose + 10% FBS, 0.569 µM
# [19] = RPMI 5 mM glucose + 10% FBS, 1.71 µM
# [20] = RPMI 5 mM glucose + 10% FBS, 5.12 µM
# [21] = RPMI 5 mM glucose + 10% FBS, 15.4 µM
# [22] = RPMI 5 mM glucose + 10% FBS, 46.1 µM
# [23] = RPMI 5 mM glucose + 10% dialyzed FBS, 0.000781 µM
# [24] = RPMI 5 mM glucose + 10% dialyzed FBS, 0.00234 µM
# [25] = RPMI 5 mM glucose + 10% dialyzed FBS, 0.00702 µM
# [26] = RPMI 5 mM glucose + 10% dialyzed FBS, 0.0211 µM
# [27] = RPMI 5 mM glucose + 10% dialyzed FBS, 0.0632 µM
# [28] = RPMI 5 mM glucose + 10% dialyzed FBS, 0.19 µM
# [29] = RPMI 5 mM glucose + 10% dialyzed FBS, 0.569 µM
# [30] = RPMI 5 mM glucose + 10% dialyzed FBS, 1.71 µM
# [31] = RPMI 5 mM glucose + 10% dialyzed FBS, 5.12 µM
# [32] = RPMI 5 mM glucose + 10% dialyzed FBS, 15.4 µM
# [33] = RPMI 5 mM glucose + 10% dialyzed FBS, 46.1 µM
SMILES,cell viability [1] [%],cell viability [2] [%],cell viability [3] [%],cell viability [4] [%],cell viability [5] [%],cell viability [6] [%],cell viability [7] [%],cell viability [8] [%],cell viability [9] [%],cell viability [10] [%],cell viability [11] [%],cell viability [12] [%],cell viability [13] [%],cell viability [14] [%],cell viability [15] [%],cell viability [16] [%],cell viability [17] [%],cell viability [18] [%],cell viability [19] [%],cell viability [20] [%],cell viability [21] [%],cell viability [22] [%],cell viability [23] [%],cell viability [24] [%],cell viability [25] [%],cell viability [26] [%],cell viability [27] [%],cell viability [28] [%],cell viability [29] [%],cell viability [30] [%],cell viability [31] [%],cell viability [32] [%],cell viability [33] [%]
Cn1cc(-c2cnn3c(N)c(Br)c([C@@H]4CCCNC4)nc23)cn1,99.8,107,111,102,101,99,93.2,47.7,21.8,15.8,27.6,99.7,88,88.8,85.2,89.7,89.3,84.2,60.3,16.4,11.3,12.8,78.7,93.1,84.1,98.2,95.3,92.5,81.2,33.4,20.1,16.5,19
CCCCOc1ccc(CC(=O)NO)cc1,122,124,114,121,101,104,104,109,107,95.4,85.3,101,110,122,99.3,97.4,118,108,108,96.1,97.2,81.2,107,123,116,126,109,111,109,103,95,94.7,86.9
O=[S+]([O-])(O)c1ccc2cc(/N=N/c3cc([S+](=O)([O-])O)c4cccnc4c3O)ccc2c1,114,122,133,136,129,139,122,126,127,110,44,116,106,111,109,119,119,109,110,101,110,44.2,121,124,117,115,119,113,121,119,110,106,62.1
O=C(O)c1ccc(-c2c[nH]c3ncc(-c4ccccc4)cc23)cc1C1CCCC1,114,120,121,130,134,134,131,138,126,134,110,118,108,131,123,127,123,130,132,113,115,117,108,127,112,133,137,126,125,132,120,105,119
CN1CC/C(CC1)=C3\c4ccccc4CC(=O)c2sccc23,120,125,114,121,130,128,153,135,110,112,105,120,123,136,135,136,134,156,131,142,151,128,,,,,,,,,,,
CN1/C=C(\N=C(NC2=CC=C(C=C2)C(=O)N3CCOCC3)/C1=O)/C4=C(C)C(=CC=C4)NC(=O)C5=CC=C(C=C5)C(C)(C)C,91.6,114,102,85.2,103,111,112,110,97.2,94.2,70.7,91.4,84.4,99.5,89.5,98.3,88.7,100,84.9,80.6,88.1,85.1,97.6,92.9,96.2,95.9,106,100,107,94.6,93.1,78.4,77.2
CCOc1cc(/C=C2/C(=O)N(c3ccccc3)N=C2C)cc(Cl)c1OCC(=O)OC,86.1,92.5,93,93.5,84.4,95.5,101,96.3,87.5,77.6,85.1,81.8,80.8,82.1,89.2,93.6,89.5,93.3,88.4,78.4,91.8,83,89.2,88.5,94.9,85.5,92.6,102,85,82.8,86.7,84.6,87.5
